According to patent US12037345B2, “Heterobicyclic compounds for inhibiting the activity of SHP2” (TAIHO PHARMACEUTICAL CO., LTD., priority 2018, dated 2024):
Structures can show the parent of a compound that is named as a salt. Where two headings read alike, the source gives them in different places.

How the values were obtained:
[1] = system: pERK (phospho-p44/42 MAPK Thr202/Tyr204) in HCC827 cells; assay: Cellular pERK Inhibition Assay, Method B (PathScan phospho-p44/42 MAPK sandwich ELISA); type: cell-based; details: Homo sapiens, Table 19, head prints unit as "-M", read-out: pERK (IC50) Method B
Procedure: Cellular pERK Inhibition Assay
HCC827 cells (ATCC, Manassas, USA) were seeded into 96-well plates at a density of 1×10^5 cells/well in RPMI medium supplemented with 10% FBS and incubated 24h. Compounds were diluted first in DMSO and then into serum-free medium, before being added to cells in triplicate to give a final concentration of 0.1% DMSO. Plates were incubated at 37° C. for the indicated time in a humidified atmosphere of 5% CO2 in air.
Following compound treatment, medium was removed and cells were lysed by adding 50 μL of lysis buffer (Cell Signalling Technology, Beverly, USA) to each well. Plates were then incubated at room temperature for 25 minutes with shaking. pERK levels were measured in lysates using the PathScan(Registered Trademark) phospho-p44/42 MAPK (Thr202/Tyr204) sandwich ELISA (Cell Signalling Technology, Beverly, USA) as per kit instructions. Briefly, 50 μL of cell lysate was added to 50 μL of ELISA sample diluent in a 96-well ELISA plate and incubated overnight at 4° C. Following washing, 100 μL of detection antibody was added per well and the plates incubated for 1 hour at 37° C. Plates were washed again and incubated at 37° C. for 30 minutes with 100 μl of HRP-linked secondary antibody per well. After final washing, 100 μL per well of TMB substrate was added and plates incubated at 37° C. to develop colour. Colour development was stopped by the addition of 100 μL per well of stop solution. Plates were read at 450 nm on a SpectraMax Gemini reader (Molecular Devices, Uckfield, UK).
The average signal from blank wells (no cells added) was subtracted from the signals from each sample well. Levels of pERK were then expressed as “percent of control”, using DMSO treated samples as control. Dose response curves were generated using GraphPad Prism Version 6 (GraphPad Software, La Jolla, USA) and fitted using the four parameter logistic curve fit.

SHP2 = SHP2 (Homo sapiens (Human), UniProt Q06124); assay: SHP2 Biochemical Assay (DiFMUP conversion, pIRS1-activated)
Summary of the method: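 Rates of DiFMU formation were followed 30 min at ex 360/em 450 nm, with 50 μM DiFMUP, 10 pM SHP2 and pIRS1 peptide ([…]) after 30 min compound pre-incubation at pH 7.0 Bis-Tris propane. Four-parameter logistic IC50s in singlicate; repeat runs averaged.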

[2] = system: pERK (phospho-p44/42 ERK) in HCC827 cells; assay: Cellular pERK Inhibition Assay, Method A (In-Cell Western); type: cell-based; details: Homo sapiens
Summary of the method: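 In-Cell Western: phospho-p44/42 ERK antibody staining of formalin-fixed HCC827 cells after compound exposure (serum-free medium, 0.2% DMSO, 37 °C, indicated time). Readings minus cell-free blanks were normalised to DMSO-treated wells. Relative IC50 came from four-parameter logistic fits of quadruplicates, given as single or mean values.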

[3] = Table 19, head prints unit as "-M"
[4] = Table 19, head prints unit as "-M", read-out: pERK (IC50) Method A
[5] = Table 20, read-out: pERK (IC50, μM) Method A

Chain of SHP2 (Q06124 whole entry): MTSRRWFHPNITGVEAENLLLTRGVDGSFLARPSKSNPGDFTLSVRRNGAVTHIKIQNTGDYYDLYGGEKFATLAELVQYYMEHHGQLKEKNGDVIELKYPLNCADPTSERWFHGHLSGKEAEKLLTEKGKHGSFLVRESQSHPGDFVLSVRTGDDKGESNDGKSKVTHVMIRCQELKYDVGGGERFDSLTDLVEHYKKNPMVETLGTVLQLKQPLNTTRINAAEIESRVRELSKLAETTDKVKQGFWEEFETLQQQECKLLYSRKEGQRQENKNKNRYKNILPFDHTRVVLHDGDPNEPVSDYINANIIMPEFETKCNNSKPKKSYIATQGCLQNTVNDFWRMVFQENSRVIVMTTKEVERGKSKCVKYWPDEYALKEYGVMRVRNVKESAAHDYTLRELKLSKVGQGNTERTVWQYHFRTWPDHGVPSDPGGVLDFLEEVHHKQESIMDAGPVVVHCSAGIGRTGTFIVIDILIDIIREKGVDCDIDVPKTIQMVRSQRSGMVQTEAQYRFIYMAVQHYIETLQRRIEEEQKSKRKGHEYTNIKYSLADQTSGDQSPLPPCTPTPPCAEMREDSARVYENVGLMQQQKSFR

SMILES | IC50 [1] | IC50 (SHP2; [3]) | IC50 [2, 4] | IC50 (SHP2; Table 20) | IC50 [2, 5]
Cn1cc2c(Cl)c(-c3c[nH]c4nc(N5[C@@H]6CC[C@@H](N)[C@H]5CC6)n(C)c(=O)c34)ccc2n1 (racemic) [Example 152, rac-2-[(1R,2R,5R)-2-amino-8-azabicyclo[3.2.1]octan-8-yl]-5-(4-chloro-2-methyl-2H-indazol-5-yl)-3-methyl-3H,4H,7H-pyrrolo[2,3-d]pyrimidin-4-one] | 0.66 µM | 0.029 µM |  |  | 
CCn1nc2ccc(-c3n[nH]c4nc(N5[C@H]6CC[C@@H]5[C@H](NC)C6)n(C)c(=O)c34)c(Cl)c2c1Cl [Example 128, 3-(3,4-dichloro-2-ethyl-2H-indazol-5-yl)-5-methyl-6-((1R,2R,4S)-2-(methylamino)-7-azabicyclo[2.2.1]heptan-7-yl)-1,5-dihydro-4H-pyrazolo[3,4-d]pyrimidin-4-one] |  | 0.011 µM | 0.16 µM |  | 
Cn1cc2c(Cl)c(-c3c[nH]c4nc(N5[C@H]6CC[C@@H]5[C@@H](F)[C@H](N)C6)n(C)c(=O)c34)ccc2n1 [Example 129, 2-((1R,2S,3R,5S)-3-amino-2-fluoro-8-azabicyclo[3.2.1]octan-8-yl)-5-(4-chloro-2-methyl-2H-indazol-5-yl)-3-methyl-3,7-dihydro-4H-pyrrolo[2,3-d]pyrimidin-4-one] |  | 0.069 µM | 0.98 µM |  | 
Cn1cc2c(Cl)c(-c3c[nH]c4nc(N5[C@@H]6CC[C@H]5[C@H](F)[C@@H](N)C6)n(C)c(=O)c34)ccc2n1 [Example 130, 2-((1S,2R,3S,5R)-3-amino-2-fluoro-8-azabicyclo[3.2.1]octan-8-yl)-5-(4-chloro-2-methyl-2H-indazol-5-yl)-3-methyl-3,7-dihydro-4H-pyrrolo[2,3-d]pyrimidin-4-one] |  | 0.063 µM | 0.8 µM |  | 
Cn1cc2c(Cl)c(-c3c[nH]c4nc(N5[C@H]6CC[C@@H]5[C@H](F)[C@H](N)C6)n(C)c(=O)c34)ccc2n1 [Example 131, 2-((1R,2R,3R,5S)-3-amino-2-fluoro-8-azabicyclo[3.2.1]octan-8-yl)-5-(4-chloro-2-methyl-2H-indazol-5-yl)-3-methyl-3,7-dihydro-4H-pyrrolo[2,3-d]pyrimidin-4-one] |  | 0.028 µM | 0.46 µM |  | 
Cn1cc2c(Cl)c(-c3c[nH]c4nc(N5[C@@H]6CC[C@H]5[C@@H](F)[C@@H](N)C6)n(C)c(=O)c34)ccc2n1 [Example 132, 2-((1S,2S,3S,5R)-3-amino-2-fluoro-8-azabicyclo[3.2.1]octan-8-yl)-5-(4-chloro-2-methyl-2H-indazol-5-yl)-3-methyl-3,7-dihydro-4H-pyrrolo[2,3-d]pyrimidin-4-one] |  | 0.015 µM | 0.25 µM |  | 
CCn1nc2ccc(-c3c[nH]c4nc(N5[C@H]6CC[C@@H]5[C@H](N)C6)n(C)c(=O)c34)c(Cl)c2c1C#N [Example 159, 5-(2-((1R,2R,4S)-2-Amino-7-azabicyclo[2.2.1]heptan-7-yl)-3-methyl-4-oxo-4,7-dihydro-3H-pyrrolo[2,3-d]pyrimidin-5-yl)-4-chloro-2-ethyl-2H-indazole-3-carbonitrile] |  | 0.0035 µM | 0.15 µM |  | 
Cn1nc2ccc(-c3n[nH]c4nc(N5[C@@H]6CC[C@H]5C[C@@H](N)C6)n(C)c(=O)c34)c(Cl)c2c1Cl [Example 160, 6-(endo-3-amino-8-azabicyclo[3.2.1]octan-8-yl)-3-(3,4-dichloro-2-methyl-2H-indazol-5-yl)-5-methyl-1,5-dihydro-4H-pyrazolo[3,4-d]pyrimidin-4-one, hydrochloride salt] |  |  |  | 0.0085 µM | 0.23 µM
Cn1nc2ccc(-c3n[nH]c4nc(N5[C@@H]6CC[C@H]5C[C@@](C)(N)C6)n(C)c(=O)c34)c(Cl)c2c1Cl [Example 161, 6-(endo-3-amino-3-methyl-8-azabicyclo[3.2.1]octan-8-yl)-3-(3,4-dichloro-2-methyl-2H-indazol-5-yl)-5-methyl-1,5-dihydro-4H-pyrazolo[3,4-d]pyrimidin-4-one] |  |  |  | 0.012 µM | 0.26 µM
Cn1nc2ccc(-c3n[nH]c4nc(N5CC[C@H](N)[C@H](F)C5)n(C)c(=O)c34)c(Cl)c2c1Cl [Example 162, 6-((3R,4S)-4-amino-3-fluoropiperidin-1-yl)-3-(3,4-dichloro-2-methyl-2H-indazol-5-yl)-5-methyl-1,5-dihydro-1H-pyrazolo[3,4-d]pyrimidin-4-one] |  |  |  | 0.042 µM | 0.81 µM
Cn1nc2ccc(-c3c[nH]c4nc(N5[C@H]6CC[C@@H]5[C@@H](F)[C@@H](N)C6)n(C)c(=O)c34)c(Cl)c2c1Cl [Example 163, 2-((1R,2S,3S,5S)-3-amino-2-fluoro-8-azabicyclo[3.2.1]octan-8-yl)-5-(3,4-dichloro-2-methyl-2H-indazol-5-yl)-3-methyl-3,7-dihydro-4H-pyrrolo[2,3-d]pyrimidin-4-one] |  |  |  | 0.002 µM | 0.012 µM
CN[C@H]1C[C@H]2CC[C@@H]1N2c1nc2[nH]cc(-c3ccc4nn(C)cc4c3Cl)c2c(=O)n1C [Example 165, 5-(4-chloro-2-methyl-2H-indazol-5-yl)-3-methyl-2-((1S,2S,4R)-2-(methylamino)-7-azabicyclo[2.2.1]heptan-7-yl)-3,7-dihydro-4H-pyrrolo[2,3-d]pyrimidin-4-one] |  |  |  | 0.084 µM | 1.4 µM
COc1cnc2ccc(-c3c[nH]c4nc(N5[C@H]6CC[C@@H]5[C@H](N)C6)n(C)c(=O)c34)c(Cl)c2n1 [Example 169, 2-((1R,2R,4S)-2-amino-7-azabicyclo[2.2.1]heptan-7-yl)-5-(5-chloro-3-methoxyquinoxalin-6-yl)-3-methyl-3,7-dihydro-4H-pyrrolo[2,3-d]pyrimidin-4-one] |  |  |  | 0.0033 µM | 0.073 µM
CN(C)c1cnc2ccc(-c3c[nH]c4nc(N5[C@H]6CC[C@@H]5[C@H](N)C6)n(C)c(=O)c34)c(Cl)c2n1 [Example 170, 2-((1R,2R,4S)-2-amino-7-azabicyclo[2.2.1]heptan-7-yl)-5-(5-chloro-3-(dimethylamino)quinoxalin-6-yl)-3-methyl-3,7-dihydro-4H-pyrrolo[2,3-d]pyrimidin-4-one] |  |  |  | 0.003 µM | 0.016 µM
Cn1nc2ccc(-c3c[nH]c4nc(N5C[C@H]6CC[C@@H]5[C@@H]6N)n(C)c(=O)c34)c(F)c2c1Cl [Example 174, 2-((1R,4R,7R)-7-amino-2-azabicyclo[2.2.1]heptan-2-yl)-5-(3-chloro-4-fluoro-2-methyl-2H-indazol-5-yl)-3-methyl-3,7-dihydro-4H-pyrrolo[2,3-d]pyrimidin-4-one] |  |  |  | 0.003 µM | 0.021 µM
Cn1c(N2[C@@H]3CC[C@H]2C[C@@H](N)C3)nc2[nH]cc(-c3ccc4nccnc4c3Cl)c2c1=O [Example 176, 2-(endo-3-amino-8-azabicyclo[3.2.1]octan-8-yl)-5-(5-chloroquinoxalin-6-yl)-3-methyl-3,7-dihydro-4H-pyrrolo[2,3-d]pyrimidin-4-one] |  |  |  | 0.077 µM | 0.66 µM
CCN[C@@H]1C[C@@H]2CC[C@H]1N2c1nc2[nH]nc(-c3ccc4nn(C)c(Cl)c4c3Cl)c2c(=O)n1C [Example 177, 3-(3,4-dichloro-2-methyl-2H-indazol-5-yl)-6-((1R,2R,4S)-2-(ethylamino)-7-azabicyclo[2.2.1]heptan-7-yl)-5-methyl-1,5-dihydro-4H-pyrazolo[3,4-d]pyrimidin-4-one] |  |  |  | 0.095 µM | 1.4 µM
COCCn1cc2c(Cl)c(-c3c[nH]c4nc(N5[C@H]6CC[C@@H]5[C@H](N)C6)n(C)c(=O)c34)ccc2n1 [Example 178, 2-((1R,2R,4S)-2-amino-7-azabicyclo[2.2.1]heptan-7-yl)-5-(4-chloro-2-(2-methoxyethyl)-2H-indazol-5-yl)-3-methyl-3,7-dihydro-4H-pyrrolo[2,3-d]pyrimidin-4-one] |  |  |  | 0.005 µM | 0.071 µM
CC(C)N[C@@H]1C[C@@H]2CC[C@H]1N2c1nc2[nH]nc(-c3ccc4nn(C)c(Cl)c4c3Cl)c2c(=O)n1C [Example 179, 3-(3,4-Dichloro-2-methyl-2H-indazol-5-yl)-6-((1R,2R,4S)-2-(isopropylamino)-7-azabicyclo[2.2.1]heptan-7-yl)-5-methyl-1,5-dihydro-4H-pyrazolo[3,4-d]pyrimidin-4-one] |  |  |  | 0.15 µM | 2.1 µM
